The results in this text go back to paper PMC12954580, “Multivalent glycoligands with lectin/enzyme dual specificity: self-deliverable glycosidase regulators” (Chemical Communications (Cambridge, England), 2019).

One experiment concerns the target T1, concanavalin A (ConA) (Canavalia ensiformis, UniProt P02866).
T1 construct: purchased
The experiment in a line: Enzyme-linked lectin assay (ELLA), HRP-ConA/mannan binding inhibition. Also on record: species or system Concanavalia einsiformis. The settings on record: Figure S19A, values printed over bars, axis log [IC50, M]. Here is the method:
The absorbance of the resulting mixture was determined at 405 nm.

Experiment [1] concerns the target T2, α-mannosidase (jack beans) (Canavalia ensiformis, UniProt C0HJB3).
T2 construct: purchased; host or cells: jack beans
T2 sequence (C0HJB3 1-981): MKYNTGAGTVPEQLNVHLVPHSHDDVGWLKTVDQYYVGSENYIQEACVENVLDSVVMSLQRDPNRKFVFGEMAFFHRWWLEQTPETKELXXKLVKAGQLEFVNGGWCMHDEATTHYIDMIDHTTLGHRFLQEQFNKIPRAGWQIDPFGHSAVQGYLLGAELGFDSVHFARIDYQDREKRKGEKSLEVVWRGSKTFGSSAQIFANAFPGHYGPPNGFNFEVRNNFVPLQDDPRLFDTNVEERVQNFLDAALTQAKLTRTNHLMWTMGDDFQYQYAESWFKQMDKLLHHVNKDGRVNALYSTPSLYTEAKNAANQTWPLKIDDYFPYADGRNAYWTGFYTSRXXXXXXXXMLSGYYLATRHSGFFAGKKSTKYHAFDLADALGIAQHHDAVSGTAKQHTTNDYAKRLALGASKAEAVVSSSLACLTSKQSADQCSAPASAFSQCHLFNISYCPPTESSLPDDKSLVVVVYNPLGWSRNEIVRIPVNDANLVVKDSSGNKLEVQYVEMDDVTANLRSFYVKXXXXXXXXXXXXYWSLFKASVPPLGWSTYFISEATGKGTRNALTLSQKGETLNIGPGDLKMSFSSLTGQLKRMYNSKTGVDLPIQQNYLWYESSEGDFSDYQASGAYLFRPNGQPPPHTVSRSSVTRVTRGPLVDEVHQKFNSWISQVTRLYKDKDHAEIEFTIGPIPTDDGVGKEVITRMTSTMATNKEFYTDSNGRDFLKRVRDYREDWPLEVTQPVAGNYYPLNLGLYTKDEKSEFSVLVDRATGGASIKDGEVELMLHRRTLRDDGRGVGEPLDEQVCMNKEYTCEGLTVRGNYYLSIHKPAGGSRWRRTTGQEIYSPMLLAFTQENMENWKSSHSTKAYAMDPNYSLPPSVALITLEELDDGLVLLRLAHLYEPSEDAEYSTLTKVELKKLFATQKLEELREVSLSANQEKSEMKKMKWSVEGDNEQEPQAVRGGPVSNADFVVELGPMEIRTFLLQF
Description: Enzymatic stability / substrate behaviour towards glycosidases (gas chromatography). The class given is biochemical. The settings on record: control experiment. The source says:
Preliminary evidence on the feasibility of achieving disparate glycosidase inhibition selectivity with the multivalent glycoclusters 3–8 and, at the same time, retaining intrinsic lectin binding properties was achieved by conducting control experiments using both commercial glycosidases and lectins. The glycosidase panel included α- and β-glucosidases (S. cerevisiae and bovine liver), α- and β-galactosidases (green coffee beans and E. coli) and α- and β-mannosidases (jack beans and H. pomatia). Prior to kinetic determination of the corresponding inhibition constant (Ki) values (Table S1 and Fig. S9–S18, ESI ^†), the enzymatic stability was investigated by gas chromatography. […] In all the other cases the α-mannopyranoside linkages remained stable, meaning that any effect observed in the enzyme activity should be ascribed to an inhibitor and not to a substrate behavior.

In experiment [2] the target is T3, recombinant human MMR (macrophage mannose receptor) (Homo sapiens, UniProt P22897).
T3 sequence (P22897 19-1456): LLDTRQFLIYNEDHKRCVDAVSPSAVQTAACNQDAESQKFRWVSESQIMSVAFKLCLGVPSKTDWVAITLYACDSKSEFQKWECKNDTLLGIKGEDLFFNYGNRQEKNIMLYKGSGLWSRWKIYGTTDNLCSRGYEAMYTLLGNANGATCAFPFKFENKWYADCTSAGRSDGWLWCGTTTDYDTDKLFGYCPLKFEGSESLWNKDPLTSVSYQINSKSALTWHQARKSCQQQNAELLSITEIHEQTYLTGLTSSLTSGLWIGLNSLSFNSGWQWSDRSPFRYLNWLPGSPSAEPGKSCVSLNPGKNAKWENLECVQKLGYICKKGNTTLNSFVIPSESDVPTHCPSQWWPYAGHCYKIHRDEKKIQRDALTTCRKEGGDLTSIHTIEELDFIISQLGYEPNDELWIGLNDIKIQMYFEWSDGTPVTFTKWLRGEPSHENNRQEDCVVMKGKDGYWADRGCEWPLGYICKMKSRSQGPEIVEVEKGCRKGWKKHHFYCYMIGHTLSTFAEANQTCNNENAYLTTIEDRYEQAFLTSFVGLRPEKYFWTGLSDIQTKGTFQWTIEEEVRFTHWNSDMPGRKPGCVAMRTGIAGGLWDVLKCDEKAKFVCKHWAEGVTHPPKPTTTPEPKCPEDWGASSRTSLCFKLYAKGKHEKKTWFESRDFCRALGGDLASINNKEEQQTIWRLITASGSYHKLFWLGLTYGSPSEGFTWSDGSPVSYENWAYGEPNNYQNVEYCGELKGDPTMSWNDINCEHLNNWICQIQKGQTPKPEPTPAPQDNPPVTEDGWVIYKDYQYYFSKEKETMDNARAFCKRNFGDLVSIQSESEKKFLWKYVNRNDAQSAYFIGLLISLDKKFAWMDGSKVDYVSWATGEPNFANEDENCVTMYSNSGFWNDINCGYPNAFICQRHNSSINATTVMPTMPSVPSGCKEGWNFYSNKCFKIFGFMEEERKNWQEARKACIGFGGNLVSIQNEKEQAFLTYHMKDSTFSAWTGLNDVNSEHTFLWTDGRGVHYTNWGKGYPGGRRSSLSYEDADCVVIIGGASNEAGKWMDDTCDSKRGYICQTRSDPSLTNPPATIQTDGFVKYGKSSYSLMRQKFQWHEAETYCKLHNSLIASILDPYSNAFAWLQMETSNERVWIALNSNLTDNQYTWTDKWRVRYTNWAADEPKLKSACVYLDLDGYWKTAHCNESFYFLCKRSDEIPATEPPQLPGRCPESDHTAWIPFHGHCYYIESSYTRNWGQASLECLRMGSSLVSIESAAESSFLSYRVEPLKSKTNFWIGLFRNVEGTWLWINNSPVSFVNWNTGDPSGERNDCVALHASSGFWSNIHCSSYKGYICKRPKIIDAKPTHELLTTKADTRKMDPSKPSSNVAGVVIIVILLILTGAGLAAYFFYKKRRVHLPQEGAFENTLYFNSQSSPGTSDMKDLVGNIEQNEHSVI
Description: Modified ELLA: inhibition of rhMMR binding to yeast mannan. The note with it: mean of three independent experiments ± SD. The method, then:
conjugates 3-8 the above protocol was repeated using in the last incubation step a solution of the desired HRP-ConA lectin concentration (50 µL per well) that contained inhibitors targeting the glycone, glycone/aglycone and surface sites (9-13; 500 µM; Figure S21B). Control […]
in the absence of the enzyme.
Determination of recombinant human MMR (rhMMR) binding affinities . The wells of mannan-coated microplates, prepared as above described, were filled with 100 μL of serial dilutions of rhMMR from a 10 µg·mL-1 stock solution in PBS (pH 7.3 containing 0.1 mM Ca2+ and 0.1 mM Mn2+), and incubated at 37 °C for 1 h. The plates were washed three times with PBST as described above and 100 µL of a solution of biotinylated anti -human MMR antibody (0.2 µg·mL_1, R&D Systems) in PBS was added in each well, and the plates were further incubated for 1 h at 37 °C.
The complex NeutrAvidin-biotinylated HRP was preformed separately by successively adding to Tris buffer (9.6 mL, 50 mM, pH 7.6) a solution of NeutrAvidin (100 µg·mL-1 in Tris buffer, 1.2 mL, Thermo Scientific) and a solution of biotin-conjugated HRP (25 µg·mL-1 in Tris buffer, 1.2 mL, Thermo Scientific). […] After 5 min at RT, the optical density was measured at 415 nm. […]
inhibition experiments. […] Optical density at 415 nm was determined after 5 min. The percent of inhibition was calculated as above indicated for a typical ELLA experiment.

One may read the IC50 as the midpoint of a concentration-inhibition curve. Turning to `CO[C@H]1O[C@H](CO)[C@@H](O)[C@H](O)[C@@H]1O` [MeMan, methyl α-D-mannopyranoside], at concanavalin A (ConA), the half-inhibitory concentration (IC50) amounted to 800 µM. On to Man9, for which, in experiment [1], the “Substrate behaviour towards GH38 jack bean Manase” value is recorded as “substrates”. In addition, in experiment [2], the IC50 came out at 3.9 ± 0.5 µM.
